Data: patent US8674115B2, “CRTH2 modulators” (Ironwood Pharmaceuticals, Inc., priority 2009, dated 2014)

Experiments:
CRTH2 [1] = target: T1, CRTH2 (Homo sapiens, UniProt Q9Y5Y4); assay: DPBS CD11b antagonist assay (CD11b expression in eosinophils); type: cell-based; conditions: challenged with 10 nM 15R-Methyl-PGD2, read-out: CD11b Antag IC50(nM) [HuEos-DPBS-vs10nM15R]
T1 sequence (Q9Y5Y4 1-395): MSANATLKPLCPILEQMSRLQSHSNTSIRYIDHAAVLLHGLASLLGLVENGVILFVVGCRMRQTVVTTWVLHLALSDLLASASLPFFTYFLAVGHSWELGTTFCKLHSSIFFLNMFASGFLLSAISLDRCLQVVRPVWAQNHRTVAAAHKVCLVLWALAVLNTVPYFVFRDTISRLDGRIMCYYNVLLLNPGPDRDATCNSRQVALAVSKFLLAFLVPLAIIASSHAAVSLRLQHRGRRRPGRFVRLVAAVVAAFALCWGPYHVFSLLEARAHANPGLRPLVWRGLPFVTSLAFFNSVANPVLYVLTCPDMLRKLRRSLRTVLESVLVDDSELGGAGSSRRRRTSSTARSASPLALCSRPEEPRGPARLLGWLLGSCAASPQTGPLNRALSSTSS
Method: DPBS CD11b Antagonist Assay.
The potential CRTH2 antagonist activity of certain compounds was tested using a CD11b expression assay using essentially the method described by Monneret et al. (J Pharmacol Exp Ther 304:349-55, 2003). Briefly, polymorphonuclear cells (0.5 ml; 10^6/ml cells) in PBS containing 0.9 mM CaCl2 and 0.5 mM MgCl2) were preincubated with various concentrations of test compounds at room temperature for 10 minutes before they were challenged with the agonist 15R-Methyl-PGD2 (10 nM). The incubations were terminated by the addition of ice-cold FACSFlow (BD Biosciences; Cat# 342003) and centrifugation (400 g for 5 minutes at 4° C.). The cells were then incubated for 30 minutes at 4° C. with a mixture of PE-labeled mouse anti-human VLA-4 (5 μl; BD Biosciences) and FITC-labeled mouse anti-human CD11b (10 μl; Beckman Coulter). The cells were then incubated with Optilyse C (0.25 ml; Beckman Coulter) for 15 minutes, centrifuged, and then fixed in PBS (0.4 ml; calcium and magnesium free) containing 1% formaldehyde. The distribution of fluorescence intensities among 60,000 cells was measured by flow cytometry. Eosinophils were gated out on the basis of their granularity (high side scatter) and labeling with VLA-4 (PE fluorescence). CD11b was then measured in the eosinophil region on the basis of fluorescence due to FITC. All data were corrected for the value obtained for the corresponding isotope control antibody.

CRTH2 [2] = target: T1, CRTH2; assay: Human whole blood CD11b antagonist assay (CD11b expression in eosinophils); type: cell-based; design: endogenous in cells; host or cells: eosinophils in human whole blood; conditions: challenged with 10 nM 15R-Methyl-PGD2, read-out: CD11b Antag IC50(nM) [HuEos-HuWB-vs10nM15R]
Method: Human Whole Blood CD11B Antagonist Assay (Modified from Nicholson, et al. Pulmonary Pharmacology and Therapeutics: 20 (2007); 52-59).
The potential CRTH2 antagonist activity of certain compounds was tested in human whole blood using an assay that tests the ability of the compounds to block the CD11b expression in eosinophils by 15-R-methyl-PGD2. A CRTH2 antagonist should block CD11b expression by subsequently added 15-Methyl-PGD2. Human whole blood (200 μL) was incubated at 37° C. for 10 minutes in the presence of various concentrations of test compounds before being challenged with the agonist 15R-Methyl-PGD2 (10 nM). Reactions were terminated by the addition of ice-cold PBS+0.5% BSA+2 mMEDTA (1 mL) and centrifugation (300×g for 5 minutes at 4° C.) Cells were then incubated at 4° C. for 10 min in the presence of human IgG. Cells were then incubated for 30-45 min with a mixture of PE-Cy5-labeled mouse anti-human CD16 (10 ul; BD Biosciences) and FITC-labeled mouse anti-human CD11b (10 μL; Beckman Coulter.) After rinsing (1 mL ice-cold PBS+0.5% BSA+2 mMEDTA), red blood cells were lysed by the addition of 1 mL ice-cold H2O to the cell pellet for 30 sec-1 min immediately followed by the addition of 3.5% NaCl (300 μL.) Cells were then rinsed (2×-1 ml ice cold PBS+0.5% BSA+2 mMEDTA) and fixed in PBS containing 1% formaldehyde. The distribution of fluorescence intensities was measured by flow cytometry. Eosinophils were gated out on the basis of their granularity (high side scatter) and absence of CD-16. CD11b was then measured on this eosinophil population on the basis of fluorescence due to FITC.

| SMILES | IC50 (CRTH2 [1]) [nM] | IC50 (CRTH2 [2]) [nM] |
| --- | --- | --- |
| Cc1c(C#N)c(Cc2ccccc2S(=O)(=O)c2ccccc2)c(C)n1CC(=O)O [I-23, 2-(3-cyano-2,5-dimethyl-4-(2-(phenylsulfonyl)benzyl)-1H-pyrrol-1-yl)acetic acid] | < 5 | 5 to 100 |
| Cc1c(Cc2ccccc2S(=O)(=O)N2CCOCC2)c(C#N)c(-c2ccccc2)n1CC(=O)O [I-3, 2-(3-cyano-5-methyl-4-(2-(morpholinosulfonyl)benzyl)-2-phenyl-1H-pyrrol-1-yl)acetic acid] |  | 5 to 100 |
| Cc1c(Cc2ccccc2S(=O)(=O)c2ccccc2)cc(-c2ccccc2)n1CC(=O)O [I-6, 2-(2-methyl-5-phenyl-3-(2-(phenylsulfonyl)benzyl)-1H-pyrrol-1-yl)acetic acid] | < 5 | 100 to 500 |
| Cc1c(Cc2ccccc2S(=O)(=O)c2ccccc2)cc(-c2cccnc2)n1CC(=O)O [I-2, 2-(2-methyl-3-(2-(phenylsulfonyl)benzyl)-5-(pyridin-3-yl)-1H-pyrrol-1-yl)acetic acid] |  | 5 to 100 |
| Cc1cc(Sc2ccccc2S(=O)(=O)N2CCOCC2)c(C)n1CC(=O)O [I-29, 2-(2,5-dimethyl-3-(2-(morpholinosulfonyl)phenylthio)-1H-pyrrol-1-yl)acetic acid] | < 5 | 5 to 100 |
| Cc1c(Cc2ccccc2S(=O)(=O)N2CCCC2)c(C#N)c(-c2ccccc2)n1CC(=O)O [I-11, 2-(3-cyano-5-methyl-2-phenyl-4-(2-(pyrrolidin-1-ylsulfonyl)benzyl)-1H-pyrrol-1-yl)acetic acid] |  | 5 to 100 |
| Cc1nn(CC(=O)O)c(C)c1Cc1ccccc1S(=O)(=O)N1CCCC1 [I-72, 2-(3,5-dimethyl-4-(2-(pyrrolidin-1-ylsulfonyl)benzyl)-1H-pyrazol-1-yl)acetic acid] | 100 to 500 | > 500 |
| Cc1c(Cc2ccccc2S(=O)(=O)N2CCCC2)c(C#N)c(C2CCCCC2)n1CC(=O)O [I-14, 2-(3-cyano-2-cyclohexyl-5-methyl-4-(2-(pyrrolidin-1-ylsulfonyl)benzyl)-1H-pyrrol-1-yl)acetic acid] |  | 100 to 500 |
| Cc1c(Cc2ccccc2S(=O)(=O)c2ccccc2)cc(-c2ccccn2)n1CC(=O)O [I-17, 2-(2-methyl-3-(2-(phenylsulfonyl)benzyl)-5-(pyridin-2-yl)-1H-pyrrol-1-yl)acetic acid] |  | 100 to 500 |
| Cc1c(Cc2ccccc2S(=O)(=O)c2ccccc2)cc(-c2cccc(F)c2)n1CC(=O)O [I-8, 2-(5-(3-fluorophenyl)-2-methyl-3-(2-(phenylsulfonyl)benzyl)-1H-pyrrol-1-yl)acetic acid] |  | 5 to 100 |
| Cc1c(Cc2ccccc2S(=O)(=O)N2CCOCC2)cc(-c2ccccc2)n1CC(=O)O [I-13, 2-(2-methyl-3-(2-(morpholinosulfonyl)benzyl)-5-phenyl-1H-pyrrol-1-yl)acetic acid] |  | 5 to 100 |
| Cc1c(Cc2ccccc2S(=O)(=O)c2ccccc2)c(C#N)c(-c2ccccc2)n1CC(=O)O [I-4, 2-(3-cyano-5-methyl-2-phenyl-4-(2-(phenylsulfonyl)benzyl)-1H-pyrrol-1-yl)acetic acid] | < 5 | 5 to 100 |
| Cc1c(Cc2ccccc2S(=O)(=O)c2ccccc2)cc(-c2ccc(C(F)(F)F)cc2)n1CC(=O)O [I-25, 2-(2-methyl-3-(2-(phenylsulfonyl)benzyl)-5-(4-(trifluoromethyl)phenyl)-1H-pyrrol-1-yl)acetic acid] | 5 to 100 | > 500 |
| Cc1c(C#N)c(Cc2ccccc2S(=O)(=O)N2CCOCC2)c(C)n1CC(=O)O [I-46, 2-(3-cyano-2,5-dimethyl-4-(2-(morpholinosulfonyl)benzyl)-1H-pyrrol-1-yl)acetic acid] | 5 to 100 | 5 to 100 |
| Cc1c(C#N)c(CC(=O)O)c(C)n1Cc1ccccc1S(=O)(=O)N1CCCC1 [I-73, 2-(4-cyano-2,5-dimethyl-1-(2-(pyrrolidin-1-ylsulfonyl)benzyl)-1H-pyrrol-3-yl)acetic acid] |  | > 500 |
| Cc1c(Cc2ccccc2S(=O)(=O)c2ccccc2)cc(-c2ccc(F)cc2)n1CC(=O)O [I-15, 2-(5-(4-fluorophenyl)-2-methyl-3-(2-(phenylsulfonyl)benzyl)-1H-pyrrol-1-yl)acetic acid] |  | 100 to 500 |
| Cc1c(Cc2ccccc2S(=O)(=O)c2ccccc2)cc(-c2ccccc2F)n1CC(=O)O [I-18, 2-(5-(2-fluorophenyl)-2-methyl-3-(2-(phenylsulfonyl)benzyl)-1H-pyrrol-1-yl)acetic acid] |  | > 500 |
| Cc1c(Cc2ccccc2S(=O)(=O)N2CCCC2)cc(-c2ccccc2)n1CC(=O)O [I-16] |  | 100 to 500 |
| Cc1c(Cc2ccccc2S(=O)(=O)c2ccccc2)c(-c2ccccc2)c(-c2ccccc2)n1CC(=O)O [I-12, 2-(2-methyl-4,5-diphenyl-3-(2-(phenylsulfonyl)benzyl)-1H-pyrrol-1-yl)acetic acid] |  | 5 to 100 |
| Cc1c(Cc2ccccc2S(=O)(=O)N2CCCC2)c(-c2ccccc2)c(C)n1CC(=O)O [I-57, 2-(2,5-dimethyl-3-phenyl-4-(2-(pyrrolidin-1-ylsulfonyl)benzyl)-1H-pyrrol-1-yl)acetic acid] | < 5 | 5 to 100 |
| Cc1cc(C(=O)c2ccccc2S(=O)(=O)N2CCOCC2)c(C)n1CC(=O)O [I-56, 2-(2,5-dimethyl-3-(2-(morpholinosulfonyl)benzoyl)-1H-pyrrol-1-yl)acetic acid] | > 500 | 100 to 500 |
| Cc1c(Cc2ccc(S(=O)(=O)N3CCCC3)cc2)c(C)n(CC(=O)O)c1CCO [I-20, 2-(2-(2-hydroxyethyl)-3,5-dimethyl-4-(4-(pyrrolidin-1-ylsulfonyl)benzyl)-1H-pyrrol-1-yl)acetic acid] | > 500 |  |
| CCOC(=O)Cn1c(C)c(C#N)c(Cc2ccccc2S(=O)(=O)N2CCCC2)c1C [I-63, Ethyl 2-(3-cyano-2,5-dimethyl-4-(2-(pyrrolidin-1-ylsulfonyl)benzyl)-1H-pyrrol-1-yl)acetate] | > 500 | > 500 |
| Cc1c(Cc2ccccc2S(=O)(=O)N2CCCC2)c(C(=O)c2ccccc2)c(C)n1CC(=O)O [I-55, 2-(3-benzoyl-2,5-dimethyl-4-(2-(pyrrolidin-1-ylsulfonyl)benzyl)-1H-pyrrol-1-yl)acetic acid] | < 5 | 5 to 100 |
| Cc1c(C#N)c(Cc2ccccc2S(=O)(=O)N2CCCC2)c(C)n1CC(=O)O [I-32, 2-(3-cyano-2,5-dimethyl-4-(2-(pyrrolidin-1-ylsulfonyl)benzyl)-1H-pyrrol-1-yl)acetic acid] | < 5 | 5 to 100 |
| Cc1c(Cc2ccccc2S(=O)(=O)c2ccccc2)cc(-c2ccncc2)n1CC(=O)O [I-1, 2-(2-methyl-3-(2-(phenylsulfonyl)benzyl)-5-(pyridin-4-yl)-1H-pyrrol-1-yl)acetic acid] |  | < 5 |
| CC(=O)c1c(Cc2ccccc2S(=O)(=O)c2ccccc2)c(C)n(CC(=O)O)c1C [I-52, 2-(3-acetyl-2,5-dimethyl-4-(2-(phenylsulfonyl)benzyl)-1H-pyrrol-1-yl)acetic acid] | < 5 | 5 to 100 |
| Cc1c(Cc2ccccc2S(=O)(=O)c2ccccc2)cc(-c2ccccc2C(F)(F)F)n1CC(=O)O [I-27, 2-(2-methyl-3-(2-(phenylsulfonyl)benzyl)-5-(2-(trifluoromethyl)phenyl)-1H-pyrrol-1-yl)acetic acid] |  | > 500 |
